This is an account of results in ChEMBL document CHEMBL1201862, “PubChem BioAssay data set” (2004).

Among the test systems are HCT-116; LXFL 529; OVCAR-5; OVCAR-4; Malme-3M; LOX IMVI; SF-268; M14; U-251; UACC-257; NCI-H23; NCI-H226; DMS-273; SW-620; SK-MEL-5; HL-60; HCC 2998; HOP-92; SNB-19.
Assay in all cases: inhibition of tumour cell growth, NCI panel, 48 h

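Each compound was tested at five concentrations against cells in 96-well plates for 48 hours. At the GI50, growth is halved.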 Activity calls are given as the source filed them. Rule as the data show it: active = GI50 up to about 1.1 µM and inactive = higher. Where only a bound is given, the exact number is not on record here.

Consider `CC(=O)O[C@@H]1CC(C)C2CC2C2=C(C(O)OC2O)[C@@H]1C(C)CCC=C(C)C` (some centres not stated), for which the GI50 was 18.4 µM (inactive) in the test with HCT-116; 27.6 µM (inactive) in the test with LXFL 529; 18.3 µM (inactive) in the test on OVCAR-5; 24.4 µM (inactive) in the test on OVCAR-4; 27.8 µM (inactive) with Malme-3M; 20.8 µM (inactive) with LOX IMVI. Further, the GI50 was 25.8 µM (inactive) with SF-268; 31 µM (inactive) in the test with M14; 19.4 µM (inactive) in the test with U-251; 24.1 µM (inactive) in the test on UACC-257; 22.2 µM (inactive) in the test on NCI-H23; 20.1 µM (inactive) with NCI-H226. The GI50 with DMS-273 was 21.4 µM (inactive); in the test on SW-620, 23 µM (inactive); with SK-MEL-5, 25.3 µM (inactive); with HL-60, 20.4 µM (inactive); in the test with HCC 2998, 20.8 µM (inactive); with HOP-92 it was 12.8 µM (inactive). In addition, the GI50 in the test on SNB-19 is 33.7 µM (inactive).
For `CC(/C=C/NNC1=NN=C(c2ccccc2)C(c2ccccc2)N1)Sc1ccccc1N` (configuration not stated), the GI50 with HCT-116 was 6.14 µM (inactive); in the test on LXFL 529, 4.98 µM (inactive); in the test with OVCAR-5, 17.5 µM (inactive); in the test on OVCAR-4 it was 6.21 µM (inactive); in the test with Malme-3M it was 7.05 µM (inactive); with LOX IMVI, 3.18 µM (inactive). The GI50 in the test on SF-268 was 4.53 µM (inactive); in the test with M14, 3.41 µM (inactive); with U-251, 2.34 µM (inactive); with UACC-257 it was 7.06 µM (inactive); with NCI-H23 it was 12.9 µM (inactive); in the test with NCI-H226 it was 10.9 µM (inactive). Besides, the GI50 with DMS-273 is 6.7 µM (inactive); in the test with SW-620 it was 2.75 µM (inactive); with SK-MEL-5, 9.66 µM (inactive); with HL-60, 2.36 µM (inactive); with HCC 2998, 15.7 µM (inactive); in the test on HOP-92 it was 8.39 µM (inactive). Besides, in the test on SNB-19, the GI50 was 12.5 µM (inactive).
On to `O=C1NC(=S)NC(=O)C1=Cc1ccc2ccccc2n1`, for which the GI50 with HCT-116, in the test on LXFL 529, with OVCAR-5, in the test on OVCAR-4, with Malme-3M and in the test on LOX IMVI was > 100 µM (inactive) in each case. In addition, the GI50 in the test with SF-268, with M14, in the test with U-251, with UACC-257, with NCI-H23 and with NCI-H226 was > 100 µM (inactive) each time. Also, the GI50 in the test on DMS-273, in the test with SW-620, in the test on SK-MEL-5, with HL-60, in the test on HCC 2998 and in the test on HOP-92 was > 100 µM (inactive) each time. In addition, the GI50 in the test on SNB-19 is > 100 µM (inactive).
In the case of `CN(C)CC1CC/C(=C\c2ccc(Cl)cc2)C1=O` (configuration not stated), the GI50 is 3.31 µM (inactive) in the test with HCT-116; 1.99 µM (inactive) in the test on LXFL 529; 18.2 µM (inactive) in the test with OVCAR-5; 15.1 µM (inactive) in the test on OVCAR-4; 7.11 µM (inactive) in the test on Malme-3M; 2.4 µM (inactive) with LOX IMVI. Further, the GI50 was 7.03 µM (inactive) with SF-268; 10.1 µM (inactive) in the test with M14; 7 µM (inactive) with U-251; 8.17 µM (inactive) in the test on UACC-257; 8.13 µM (inactive) in the test with NCI-H23; 19.9 µM (inactive) with NCI-H226. Also, the GI50 in the test on DMS-273 was 3.85 µM (inactive); with SW-620 it was 2.61 µM (inactive); with SK-MEL-5 it was 11.9 µM (inactive); in the test with HL-60, 0.757 µM (active); in the test on HCC 2998, 4.69 µM (inactive); with HOP-92 it was 7.73 µM (inactive). The GI50 in the test on SNB-19 was 15.8 µM (inactive).
`C1CN(P2(N3CC3)=NP(N3CC3)(N3CC3)=NP(N3CC3)(N3CC3)=N2)CCO1` (configuration not stated) [FOTRETAMINE]: the GI50 was > 100 µM (inactive) in the test with HCT-116; > 100 µM (inactive) in the test with LXFL 529; > 100 µM (inactive) in the test on OVCAR-5; > 100 µM (inactive) with OVCAR-4; > 100 µM (inactive) in the test with Malme-3M; 72.4 µM (inactive) with LOX IMVI. In addition, the GI50 was 47.3 µM (inactive) in the test on SF-268; > 100 µM (inactive) with M14; 71.6 µM (inactive) in the test with U-251; 83.8 µM (inactive) with UACC-257; 27.4 µM (inactive) in the test on NCI-H23; > 85.5 µM (inactive) in the test with NCI-H226. In addition, the GI50 with DMS-273 was 32.4 µM (inactive); in the test on SW-620, > 100 µM (inactive); in the test on SK-MEL-5 it was > 100 µM (inactive); in the test on HL-60 it was 36.6 µM (inactive); in the test on HCC 2998 it was > 100 µM (inactive); in the test on HOP-92, > 100 µM (inactive). For the same molecule, the GI50 with SNB-19 was > 100 µM (inactive).
On to `CCOC(=O)c1csc(CCCCCCc2nc(C(=O)OCC)cs2)n1`, for which the GI50 in the test with HCT-116 was 35.9 µM (inactive); with LXFL 529, 56.1 µM (inactive); in the test with OVCAR-5 it was > 100 µM (inactive); with OVCAR-4, > 100 µM (inactive); in the test on Malme-3M, > 74.5 µM (inactive); in the test with LOX IMVI, 32.4 µM (inactive). For the same molecule, the GI50 is 34 µM (inactive) in the test on SF-268; > 100 µM (inactive) with M14; 24 µM (inactive) with U-251; 34.8 µM (inactive) with UACC-257; 43.2 µM (inactive) in the test on NCI-H23; 44.9 µM (inactive) with NCI-H226. Further, the GI50 is 41.2 µM (inactive) in the test with DMS-273; > 41.7 µM (inactive) in the test with SW-620; 41.6 µM (inactive) with SK-MEL-5; > 48.3 µM (inactive) in the test with HL-60; > 100 µM (inactive) with HCC 2998; > 58.2 µM (inactive) in the test with HOP-92. The GI50 in the test on SNB-19 is > 76.4 µM (inactive).
Turning to `O=c1[nH]c(S)nc2c1sc(=S)n2-c1ccccc1`, the GI50 in the test on HCT-116, in the test on LXFL 529, in the test with OVCAR-5, in the test on OVCAR-4, with Malme-3M and in the test with LOX IMVI was > 100 µM (inactive) in each case. Also, the GI50 with SF-268, with M14, with U-251, in the test on UACC-257, in the test on NCI-H23 and with NCI-H226 was > 100 µM (inactive) each time. The GI50 in the test on DMS-273 is > 100 µM (inactive); with SW-620, > 100 µM (inactive); in the test with SK-MEL-5, > 100 µM (inactive); in the test on HL-60, > 100 µM (inactive); with HCC 2998, > 100 µM (inactive); in the test with HOP-92 it was 55.3 µM (inactive). Besides, the GI50 in the test with SNB-19 was > 100 µM (inactive).
For `NC1=NS(=O)(=O)N=C(N)C1=Cc1ccc([N+](=O)[O-])o1`, the GI50 in the test with HCT-116 is 15.4 µM (inactive); with LXFL 529, 17.1 µM (inactive); with OVCAR-5, 18.9 µM (inactive); in the test with OVCAR-4, 19.9 µM (inactive); in the test with Malme-3M it was 16 µM (inactive); with LOX IMVI, 17.2 µM (inactive). For the same molecule, the GI50 with SF-268 is 17.5 µM (inactive); with M14, 14 µM (inactive); in the test with U-251 it was 50.8 µM (inactive); with UACC-257, 15.5 µM (inactive); with NCI-H23, 17.3 µM (inactive); in the test with NCI-H226, 30.8 µM (inactive). Moreover, the GI50 in the test with DMS-273 is 16.7 µM (inactive); with SW-620, 18.3 µM (inactive); in the test on SK-MEL-5, 15.3 µM (inactive); with HL-60, 5.51 µM (inactive); in the test on HCC 2998, 22.1 µM (inactive); with HOP-92, 13.8 µM (inactive). Besides, the GI50 with SNB-19 is 32.8 µM (inactive).
